Values quoted from earlier work as cited in patent US8715728B2, “Extended release pellet formulation containing pramipexole or a pharmaceutically acceptable salt thereof” (Boehringer Ingelheim International GmbH, priority 2004, dated 2014).
Where a name gives a salt, the structure may show the parent alone.

Legend:
[1] = in vivo
[2] = not given; remark: listed apart in the source

| kinetics [1] | stability in solution (in solution, light) | stability in the solid state (solid state) | solubility in buffer media ([2]; between pH 2 and pH 7.4) | Water solubility ([2]; water) | SMILES |
| --- | --- | --- | --- | --- | --- |
| linear kinetics | light sensitive | very stable |  |  | CCCN[C@H]1CCc2nc(N)sc2C1 [Pramipexole, (S)-2-amino-4,5,6,7-tetrahydro-6-(propylamino)benzothiazole] |
|  |  |  | above 10 mg/ml | more than 20 mg/mL | CCCN[C@H]1CCc2nc(N)sc2C1 [Pramipexole dihydrochloride monohydrate, pramipexole dihydrochloride monohydrate] |
